This is an account of results in patent publication US11649227B2, “Allosteric chromenone inhibitors of phosphoinositide 3-kinase (PI3K) for the treatment of disease” (Petra Pharma Corporation, priority 2020, dated 2023).

Some results are limits rather than exact numbers.

Experiment [1] concerns the target human full length PIK3CA H1047R mutant (p110α/p85α complex) (Homo sapiens (Human), UniProt P42336, H1047R). The experiment in a line: PI3K-Alpha kinase (PIK3CA) activity, H1047R mutant, Transcreener ADP2 FI assay. The note with it: PI3K-α (PIK3CA) H1047R mutant, biochemical. The protocol: (§1) PI3K-Alpha kinase (PIK3CA) activity, wild-type and H1047R mutant and determining IC50 values for inhibitors
(§2) Recombinant, catalytically active human full length PIK3KA Wild-type and H1047R mutant were purchased as 1:1 complex of N-terminal 6×his tagged p110<(catalytic) and untagged p85<(regulatory subunit) from EMD Millipore Sigma (cat. no. 14-602M and 14-792M, respectively). The enzyme stocks were diluted to 5× stocks in buffer (20 mM HEPES pH 7.4, 100 mM NaCl, 0.5 mM EGTA, 0.01% triton-x-100) just before use. PIP2diC8 (Avanti Polar Lipids Inc., cat. no. 850185) or phosphoinositol-4,5-bisphosphate with phosphoserine (PIP2:PS) membrane (Thermo Fisher Scientific, cat. no. PV5100) was used as lipid substrates. PIP2diC8 lyophilized powder and PIP2:PS (1:19) membrane stock (1 mM in PIP2) were separately dissolved in milliQ water to a concentration of 250 uM and stored in −20° C. 10 mM stocks of compounds were serially diluted (3×) in neat DMSO and stored in a dessicator at room temperature. 5× compound stocks in 25% DMSO were prepared fresh from neat DMSO stocks. Wild-type (WT) and H1047R mutant protein, along with buffer components (except ATP), were incubated with or without compound at 27° C. for 1h. After incubation, the reaction was initiated by the addition of 5 uL of 125 uM ATP. A typical assay mixture (25 uL) comprised 40 mM HEPES buffer, pH 7.4, 25 mM MgCl2, 0.01% v/v triton-X-100, 5% v/v DMSO, 20 mM NaCl, 1-5 nM wt or H1047R, 25 uM ATP, and 50 uM PTP2diC8 or PTP2 in membrane. The reaction was allowed to proceed until about […] (2.5 uM ADP) after which time, 10 uL of reaction mixture was quenched with 25 uL of transcreener reagent (Transcreener ADP2 FI assay kit, BellBrook labs, Cat. No. 3013). The contents were incubated at rt for 1h and fluorescence was measured using a plate reader (Paradigm, Molecular Devices). The same assay was also run at pH 6.0 or 6.4 using MOPS buffer (Fisher BioReagents, CAS 1132-61-2). A calibration curve was generated under identical buffer conditions with varying ADP amounts. Using that, the observed fluorescence was converted to uM ADP. A plot between [ADP] and log[I] yielded the dose-response curves that enabled the calculation of IC50s.

Experiment [2] has as its target human full length PIK3CA Wild-type (p110α/p85α complex) (Homo sapiens (Human), UniProt P42336). In words: PI3K-Alpha kinase (PIK3CA) activity, wild-type, Transcreener ADP2 FI assay. As to conditions: PI3K-α (PIK3CA) wild-type, biochemical. The procedure: as §1, §2

Sequence of human full length PIK3CA H1047R mutant (p110α/p85α complex) (P42336 whole entry H1047R): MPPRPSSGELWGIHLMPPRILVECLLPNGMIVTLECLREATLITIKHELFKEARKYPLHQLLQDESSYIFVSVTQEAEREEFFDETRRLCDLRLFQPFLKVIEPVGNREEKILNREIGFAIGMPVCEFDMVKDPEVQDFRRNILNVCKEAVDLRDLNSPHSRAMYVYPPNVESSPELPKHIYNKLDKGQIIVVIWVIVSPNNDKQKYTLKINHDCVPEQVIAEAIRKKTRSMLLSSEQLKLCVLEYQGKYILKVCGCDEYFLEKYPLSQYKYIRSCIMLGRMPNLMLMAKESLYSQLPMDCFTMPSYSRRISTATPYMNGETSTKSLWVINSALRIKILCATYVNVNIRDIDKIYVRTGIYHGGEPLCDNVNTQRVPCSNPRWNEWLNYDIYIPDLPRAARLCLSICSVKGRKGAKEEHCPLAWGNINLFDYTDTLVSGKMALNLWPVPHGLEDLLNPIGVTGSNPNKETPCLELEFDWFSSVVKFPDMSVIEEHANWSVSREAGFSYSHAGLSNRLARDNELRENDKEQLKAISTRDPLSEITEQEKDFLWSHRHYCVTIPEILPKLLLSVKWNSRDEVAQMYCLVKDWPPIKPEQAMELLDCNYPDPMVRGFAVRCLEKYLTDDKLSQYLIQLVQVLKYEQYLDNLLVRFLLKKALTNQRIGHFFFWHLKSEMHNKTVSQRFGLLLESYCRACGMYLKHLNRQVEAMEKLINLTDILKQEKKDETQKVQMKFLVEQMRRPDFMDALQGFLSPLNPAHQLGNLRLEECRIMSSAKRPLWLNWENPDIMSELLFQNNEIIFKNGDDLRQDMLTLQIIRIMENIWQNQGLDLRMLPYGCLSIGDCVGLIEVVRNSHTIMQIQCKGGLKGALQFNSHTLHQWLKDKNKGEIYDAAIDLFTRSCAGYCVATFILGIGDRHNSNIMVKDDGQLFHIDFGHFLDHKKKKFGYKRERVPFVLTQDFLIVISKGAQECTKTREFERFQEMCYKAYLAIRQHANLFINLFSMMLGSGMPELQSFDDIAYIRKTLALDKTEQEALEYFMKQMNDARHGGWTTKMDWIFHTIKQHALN
Sequence of human full length PIK3CA H1047R mutant (p110α/p85α complex) (P27986 whole entry partner): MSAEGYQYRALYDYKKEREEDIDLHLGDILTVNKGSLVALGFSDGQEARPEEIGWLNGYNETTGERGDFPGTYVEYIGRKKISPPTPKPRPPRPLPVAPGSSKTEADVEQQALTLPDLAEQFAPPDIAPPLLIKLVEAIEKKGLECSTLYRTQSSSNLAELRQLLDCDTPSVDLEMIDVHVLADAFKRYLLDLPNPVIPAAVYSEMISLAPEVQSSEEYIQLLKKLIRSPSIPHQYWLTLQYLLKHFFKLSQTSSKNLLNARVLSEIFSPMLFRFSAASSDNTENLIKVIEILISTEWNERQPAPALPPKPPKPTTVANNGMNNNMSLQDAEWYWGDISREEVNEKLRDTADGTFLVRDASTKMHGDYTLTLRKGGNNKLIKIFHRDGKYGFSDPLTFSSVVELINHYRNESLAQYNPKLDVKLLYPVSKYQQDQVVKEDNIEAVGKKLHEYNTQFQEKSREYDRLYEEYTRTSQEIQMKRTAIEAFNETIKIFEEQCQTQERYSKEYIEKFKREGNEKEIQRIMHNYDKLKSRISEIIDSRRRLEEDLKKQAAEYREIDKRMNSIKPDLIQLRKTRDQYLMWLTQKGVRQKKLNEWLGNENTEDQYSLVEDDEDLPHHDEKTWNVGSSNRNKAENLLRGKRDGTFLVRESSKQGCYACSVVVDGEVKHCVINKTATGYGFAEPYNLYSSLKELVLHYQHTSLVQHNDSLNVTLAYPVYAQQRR
Sequence of human full length PIK3CA Wild-type (p110α/p85α complex) (P42336 whole entry): as the sequence (P42336 whole entry H1047R) above, with R1047H counted along it
Sequence of human full length PIK3CA Wild-type (p110α/p85α complex) (P27986 whole entry partner): as the sequence (P27986 whole entry partner) above

What is called IC50 is the concentration needed to halve the response being measured. A high value points to a need for much substance. As for `Cc1cc(C(C)Nc2ccccc2C(=O)O)c2oc(N3CC4(C3)CC(F)(F)C4)cc(=O)c2c1` (single isomer, unassigned) [Example 222, 2-[1[2-(6,6-Difluoro-2-azaspiro[3.3]heptan-2-yl)-6-methyl-4-oxo-chromen-8-yl]ethylamino]benzoic acid 2,2,2-trifluoroacetic acid], the values for the IC50 in experiment [1] and in experiment [2] were < 500 nM and 1000 to 5000 nM, respectively.

As for `Cc1cc(C(C)Nc2ccccc2C(=O)O)c2oc(N3CC(c4ccccc4)C3)cc(=O)c2c1` (single isomer, unassigned) [Example 236, 2-[1-[6-Methyl-4-oxo-2-(3-phenylazetidin-1-yl)chromen-8-yl]ethylamino]benzoic acid 2,2,2-trifluoroacetic acid], the results for the concentration for half-maximal inhibition (IC50) in experiment [1] and in experiment [2] were < 500 nM and 500 to 1000 nM, respectively.

On to `Cc1cc(C(C)Nc2cccc(F)c2C(=O)O)c2oc(N3Cc4ccc(F)cc4C3)c(C)c(=O)c2c1` (single isomer, unassigned) [Example 244, 2-Fluoro-6-[1-[2-(5-fluoroisoindolin-2-yl)-3,6-dimethyl-4-oxo-chromen-8-yl]ethylamino]benzoic acid], for which the IC50 in experiment [1] is > 10000 nM; in experiment [2], 5000 to 10000 nM.

Consider `Cc1cc(C(C)Nc2ccccc2C(=O)O)c2oc(N3Cc4ccc(F)cc4C3)c(C)c(=O)c2c1` (single isomer, unassigned) [Example 272, 2-[1-[2-(5-Fluoroisoindolin-2-yl)-3,6-dimethyl-4-oxo-chromen-8-yl]ethylamino]benzoic acid], for which the IC50 was < 500 nM in experiment [1] and 500 to 1000 nM in experiment [2].

As for `Cc1c(N2Cc3ccc(F)cc3C2)oc2c(C(C)Nc3ccccc3C(=O)O)cc(F)cc2c1=O` (single isomer, unassigned) [Example 319, 2-[1-[6-Fluoro-2-(5-fluoroisoindolin-2-yl)-3-methyl-4-oxo-chromen-8-yl]ethylamino]benzoic acid], the IC50 in experiment [1] is < 500 nM; in experiment [2] it was 500 to 1000 nM.

Take `Cc1c(N2Cc3ccccc3C2)oc2c(C(C)Nc3ccccc3C(=O)O)cc(F)cc2c1=O` (single isomer, unassigned) [Example 324, 2-[1-(6-Fluoro-2-isoindolin-2-yl-3-methyl-4-oxo-chromen-8-yl)ethylamino]benzoic acid]: the IC50 in experiment [1] and in experiment [2] was < 500 nM in each case.

Turning to `Cc1c(N2CCC(F)(F)CC2)oc2c(C(C)Nc3ccccc3C(=O)O)cc(F)cc2c1=O` (single isomer, unassigned) [Example 326, 2-[1-[2-(4,4-Difluoro-1-piperidyl)-6-fluoro-3-methyl-4-oxo-chromen-8-yl]ethylamino]benzoic acid], the IC50 in experiment [1] and in experiment [2] was < 500 nM in each case.

Regarding `Cc1c(N2CCC3(CC2)CC3)oc2c(C(C)Nc3ccccc3C(=O)O)cc(F)cc2c1=O` (single isomer, unassigned) [Example 328, 2-[1-[2-(6-Azaspiro[2.5]octan-6-yl)-6-fluoro-3-methyl-4-oxo-chromen-8-yl]ethylamino]benzoic acid], the IC50 in experiment [1] and in experiment [2] was < 500 nM in each case.

For the compound `CC(Nc1ccccc1C(=O)O)c1cc(C(F)(F)F)cc2c(=O)cc(N3Cc4ccc(F)cc4C3)oc12` (single isomer, unassigned) [Example 335, 2-[1-[2-(5-Fluoroisoindolin-2-yl)-4-oxo-6-(trifluoromethyl)chromen-8-yl]ethylamino]benzoic acid], the IC50 in experiment [1] is < 500 nM; in experiment [2], 500 to 1000 nM.

On to `CC(Nc1ccccc1C(=O)O)c1cc(C(F)(F)F)cc2c(=O)cc(N3Cc4ccccc4C3)oc12` (single isomer, unassigned) [Example 342, 2-[1-[2-Isoindolin-2-yl-4-oxo-6-(trifluoromethyl)chromen-8-yl]ethylamino]benzoic acid], for which the IC50 in experiment [1] and in experiment [2] was < 500 nM each time.

Consider `Cc1c(N2Cc3ccc(F)cc3C2)oc2c(C(C)Nc3ccccc3C(=O)O)cc(C(F)(F)F)cc2c1=O` (single isomer, unassigned) [Example 343, 2-[1-[2-(5-Fluoroisoindolin-2-yl)-3-methyl-4-oxo-6-(trifluoromethyl)chromen-8-yl]ethylamino]benzoic acid], for which the IC50 in experiment [1] was < 500 nM; in experiment [2] it was 500 to 1000 nM.

Turning to `Cc1c(N2Cc3ccccc3C2)oc2c(C(C)Nc3ccccc3C(=O)O)cc(C(F)(F)F)cc2c1=O` (single isomer, unassigned) [Example 348, 2-[1-[2-Isoindolin-2-yl-3-methyl-4-oxo-6-(trifluoromethyl)chromen-8-yl]ethylamino]benzoic acid], the IC50 was < 500 nM in experiment [1] and 500 to 1000 nM in experiment [2].

With `Cc1cc(C(C)Nc2ccc(F)cc2C(=O)O)c2oc(N3Cc4ccc(F)cc4C3)cc(=O)c2c1` (single isomer, unassigned) [Example 349, 5-Fluoro-2-[1-[2-(5-fluoroisoindolin-2-yl)-6-methyl-4-oxo-chromen-8-yl]ethylamino]benzoic acid], the IC50 in experiment [1] and in experiment [2] was < 500 nM throughout.

For the compound `Cc1cc(C(C)Nc2ccccc2C(=O)O)c2oc(N3Cc4ccccc4C3)cc(=O)c2c1` (single isomer, unassigned) [Example 362, 2-[1-(2-Isoindolin-2-yl-6-methyl-4-oxo-chromen-8-yl)ethylamino]benzoic acid], the IC50 in experiment [1] is < 500 nM; in experiment [2], 500 to 1000 nM.

Regarding `Cc1cc(C(C)Nc2ccccc2C(=O)O)c2oc(N3Cc4ccccc4C3)c(C)c(=O)c2c1` (single isomer, unassigned; isomer 1) [Example 265, 2-[1-(2-Isoindolin-2-yl-3,6-dimethyl-4-oxo-chromen-8-yl)ethylamino]benzoic acid, Isomer 1], the figures for the IC50 in experiment [1] and in experiment [2] were < 500 nM and 1000 to 5000 nM, respectively.

Consider `CC(Nc1ccccc1C(=O)O)c1cc(C(F)(F)F)cc2c(=O)cc(N3Cc4ccc(C#N)cc4C3)oc12` (single isomer, unassigned; isomer 2) [Example 338, 2-[1-[2-(5-Cyanoisoindolin-2-yl)-4-oxo-6-(trifluoromethyl)chromen-8-yl]ethylamino]benzoic acid, Isomer 2], for which the IC50 in experiment [1] and in experiment [2] was < 500 nM each time.

With `Cc1cc(C(C)Nc2ccccc2C(=O)O)c2oc(N3C4CCCC3C4)cc(=O)c2c1` (single isomer, unassigned; isomer 2) [Example 425, 2-[1-[2-(6-Azabicyclo[3.1.1]heptan-6-yl)-6-methyl-4-oxo-chromen-8-yl]ethylamino]benzoic acid, Isomer 2], the results for the IC50 in experiment [1] and in experiment [2] were < 500 nM and 1000 to 5000 nM, respectively.

In the case of `Cc1cc(C(C)Nc2ccccc2S(=O)(=O)O)c2oc(N3CCC(C)(C)CC3)cc(=O)c2c1` (centres unmarked) [Example 4, 2-[1-[2-(4,4-Dimethyl-1-piperidyl)-6-methyl-4-oxo-chromen-8-yl]ethylamino]benzenesulfonic acid], the IC50 in experiment [1] and in experiment [2] was 1000 to 5000 nM throughout.

`Cc1cc(C(C)Nc2cccc3c2C(=O)NC3)c2oc(N3CCC(C)(C)CC3)cc(=O)c2c1` (centres unmarked) [Example 29, 7-[1-[2-(4,4-Dimethyl-1-piperidyl)-6-methyl-4-oxo-chromen-8-yl]ethylamino]isoindolin-1-one]: the IC50 in experiment [1] and in experiment [2] was 1000 to 5000 nM each time.
